Source: PubChem BioAssay (NCI)
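Five concentrations, 48 hours, 96-well plates. The concentration for 50% growth inhibition is given as GI50. TGI: concentration producing complete growth inhibition.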

Tests used:
Experiment in all cases: DTP human tumour cell line panel, 48 h
IGROV1 ovarian = system: IGROV1 ovarian
SK-MEL-2 melanoma = system: SK-MEL-2 melanoma
HCC-2998 colon = system: HCC-2998 colon
PC-3 prostate = system: PC-3 prostate
OVCAR-4 ovarian = system: OVCAR-4 ovarian
ACHN renal = system: ACHN renal
UACC-62 melanoma = system: UACC-62 melanoma
RPMI-8226 leukemia = system: RPMI-8226 leukemia
NCI-H226 lung = system: NCI-H226 lung
RXF 393 renal = system: RXF 393 renal
MALME-3M melanoma = system: MALME-3M melanoma
NCI-H522 lung = system: NCI-H522 lung
SF-539 CNS = system: SF-539 CNS
SNB-19 CNS = system: SNB-19 CNS
SN12C renal = system: SN12C renal
NCI-H23 lung = system: NCI-H23 lung
OVCAR-8 ovarian = system: OVCAR-8 ovarian
KM12 colon = system: KM12 colon
K-562 leukemia = system: K-562 leukemia
CCRF-CEM leukemia = system: CCRF-CEM leukemia
SNB-75 CNS = system: SNB-75 CNS
T-47D breast = system: T-47D breast
MDA-MB-435 = system: MDA-MB-435
HCT-15 colon = system: HCT-15 colon
SF-295 CNS = system: SF-295 CNS
SK-OV-3 ovarian = system: SK-OV-3 ovarian
TK-10 renal = system: TK-10 renal
U251 CNS = system: U251 CNS
M14 melanoma = system: M14 melanoma
OVCAR-3 ovarian = system: OVCAR-3 ovarian
UO-31 renal = system: UO-31 renal
SW-620 colon = system: SW-620 colon
LOX IMVI melanoma = system: LOX IMVI melanoma
SK-MEL-5 melanoma = system: SK-MEL-5 melanoma
DU-145 prostate = system: DU-145 prostate
A498 renal = system: A498 renal
UACC-257 melanoma = system: UACC-257 melanoma
BT-549 breast = system: BT-549 breast
HS 578T breast = system: HS 578T breast
SF-268 CNS = system: SF-268 CNS
MCF7 breast = system: MCF7 breast
786-0 renal = system: 786-0 renal
HL-60(TB) leukemia = system: HL-60(TB) leukemia
OVCAR-5 ovarian = system: OVCAR-5 ovarian
A549 NSCLC = system: A549 NSCLC
HOP-92 NSCLC = system: HOP-92 NSCLC
HCT-116 colon = system: HCT-116 colon
SK-MEL-28 melanoma = system: SK-MEL-28 melanoma
MDA-MB-231 breast = system: MDA-MB-231 breast
SR leukemia = system: SR leukemia
HOP-62 NSCLC = system: HOP-62 NSCLC
COLO 205 colon = system: COLO 205 colon
CAKI-1 renal = system: CAKI-1 renal
MOLT-4 leukemia = system: MOLT-4 leukemia

SMILES: O=C1C2CC3C(CC2C(=O)[N]1[Sn]([c]1ccccc1)([c]1ccccc1)[c]1ccccc1)C1(Cl)C(Cl)=C(Cl)C3(Cl)C1(Cl)Cl (stereo not drawn)
- GI50 (IGROV1 ovarian): 0.115 µM
- TGI (IGROV1 ovarian): 0.334 µM
- GI50 (SK-MEL-2 melanoma): 0.167 µM
- TGI (SK-MEL-2 melanoma): 0.351 µM
- GI50 (HCC-2998 colon): 0.122 µM
- TGI (HCC-2998 colon): 0.281 µM
- GI50 (PC-3 prostate): 0.0958 µM
- TGI (PC-3 prostate): 0.315 µM
- GI50 (OVCAR-4 ovarian): 0.0781 µM
- TGI (OVCAR-4 ovarian): 0.289 µM
- GI50 (ACHN renal): 0.112 µM
- TGI (ACHN renal): 0.243 µM
- GI50 (UACC-62 melanoma): 0.118 µM
- TGI (UACC-62 melanoma): 0.288 µM
- GI50 (RPMI-8226 leukemia): 0.106 µM
- TGI (RPMI-8226 leukemia): 0.53 µM
- GI50 (NCI-H226 lung): 0.184 µM
- TGI (NCI-H226 lung): 0.437 µM
- GI50 (RXF 393 renal): 0.0863 µM
- TGI (RXF 393 renal): 0.26 µM
- GI50 (MALME-3M melanoma): 0.195 µM
- TGI (MALME-3M melanoma): 0.387 µM
- GI50 (NCI-H522 lung): 0.0924 µM
- TGI (NCI-H522 lung): 0.226 µM
- GI50 (SF-539 CNS): 0.179 µM
- TGI (SF-539 CNS): 0.369 µM
- GI50 (SNB-19 CNS): 0.163 µM
- TGI (SNB-19 CNS): 0.344 µM
- GI50 (SN12C renal): 0.17 µM
- TGI (SN12C renal): 0.448 µM
- GI50 (NCI-H23 lung): 0.15 µM
- TGI (NCI-H23 lung): 0.388 µM
- GI50 (OVCAR-8 ovarian): 0.155 µM
- TGI (OVCAR-8 ovarian): 0.375 µM
- GI50 (KM12 colon): 0.13 µM
- TGI (KM12 colon): 0.29 µM
- GI50 (K-562 leukemia): 0.0492 µM
- TGI (K-562 leukemia): 0.754 µM
- GI50 (CCRF-CEM leukemia): 0.0645 µM
- TGI (CCRF-CEM leukemia): 0.371 µM
- GI50 (SNB-75 CNS): 0.0347 µM
- TGI (SNB-75 CNS): 0.19 µM
- GI50 (T-47D breast): 0.0393 µM
- TGI (T-47D breast): 0.22 µM
- GI50 (MDA-MB-435): 0.0872 µM
- TGI (MDA-MB-435): 0.257 µM
- GI50 (HCT-15 colon): 0.054 µM
- TGI (HCT-15 colon): 0.209 µM
- GI50 (SF-295 CNS): 0.212 µM
- TGI (SF-295 CNS): 0.455 µM
- GI50 (SK-OV-3 ovarian): 0.137 µM
- TGI (SK-OV-3 ovarian): 0.353 µM
- GI50 (TK-10 renal): 0.145 µM
- TGI (TK-10 renal): 0.288 µM
- GI50 (U251 CNS): 0.119 µM
- TGI (U251 CNS): 0.252 µM
- GI50 (M14 melanoma): 0.15 µM
- TGI (M14 melanoma): 0.345 µM
- GI50 (OVCAR-3 ovarian): 0.0964 µM
- TGI (OVCAR-3 ovarian): 0.222 µM
- GI50 (UO-31 renal): 0.0743 µM
- TGI (UO-31 renal): 0.212 µM
- GI50 (SW-620 colon): 0.0636 µM
- TGI (SW-620 colon): 0.216 µM
- GI50 (LOX IMVI melanoma): 0.0588 µM
- TGI (LOX IMVI melanoma): 0.184 µM
- GI50 (SK-MEL-5 melanoma): 0.145 µM
- TGI (SK-MEL-5 melanoma): 0.301 µM
- GI50 (DU-145 prostate): 0.0701 µM
- TGI (DU-145 prostate): 0.2 µM
- GI50 (A498 renal): 0.12 µM
- TGI (A498 renal): 0.276 µM
- GI50 (UACC-257 melanoma): 0.144 µM
- TGI (UACC-257 melanoma): 0.324 µM
- GI50 (BT-549 breast): 0.185 µM
- TGI (BT-549 breast): 0.369 µM
- GI50 (HS 578T breast): 0.204 µM
- TGI (HS 578T breast): 1.11 µM
- GI50 (SF-268 CNS): 0.111 µM
- TGI (SF-268 CNS): 0.286 µM
- GI50 (MCF7 breast): 0.0376 µM
- TGI (MCF7 breast): 0.154 µM
- GI50 (786-0 renal): 0.157 µM
- TGI (786-0 renal): 0.336 µM
- GI50 (HL-60(TB) leukemia): 0.176 µM
- TGI (HL-60(TB) leukemia): 0.497 µM
- GI50 (OVCAR-5 ovarian): 0.151 µM
- TGI (OVCAR-5 ovarian): 0.317 µM
- GI50 (A549 NSCLC): 0.14 µM
- TGI (A549 NSCLC): 0.347 µM
- GI50 (HOP-92 NSCLC): 0.0529 µM
- TGI (HOP-92 NSCLC): 0.221 µM
- GI50 (HCT-116 colon): 0.0473 µM
- TGI (HCT-116 colon): 0.183 µM
- GI50 (SK-MEL-28 melanoma): 0.144 µM
- TGI (SK-MEL-28 melanoma): 0.295 µM
- GI50 (MDA-MB-231 breast): 0.127 µM
- TGI (MDA-MB-231 breast): 0.37 µM
- GI50 (SR leukemia): 0.102 µM
- TGI (SR leukemia): 0.532 µM
- GI50 (HOP-62 NSCLC): 0.192 µM
- TGI (HOP-62 NSCLC): 0.427 µM
- GI50 (COLO 205 colon): 0.152 µM
- TGI (COLO 205 colon): 0.33 µM
- GI50 (CAKI-1 renal): 0.12 µM
- TGI (CAKI-1 renal): 0.275 µM
- GI50 (MOLT-4 leukemia): 0.0827 µM
- TGI (MOLT-4 leukemia): 0.546 µM
